Source: US7198946B2, “Screening for agents effective in decreasing abnormal macrophages associated with amyotrophic lateral sclerosis” (Pathologica, LLC, priority 2001, dated 2007)

Test system: CD14+ circulating monocytes from ALS patients
Assay: Effect of polyamine analogs on CD14+ monocytes in cultured PBMCs, anti-CD14 flow cytometry
Format: cell-based, human
Settings: 1.0 μM SL-11047, 6 days incubation; 6 ALS patients vs 1 normal subject and 1 MS patient (FIG. 5)
From the text: Peripheral blood mononuclear cells (PBMCs) are isolated from heparin-treated whole blood by layering over Percoll, density 1.087, (Pharmacia, Piscataway, N.J.) and followed by centrifugation at 800×g. The cells that collect at the Percoll/plasma interface are harvested and washed with 0.01 M phosphate-buffered saline (PBS). Isolated cells are then suspended in RPMI 1640 culture medium, with 10% fetal bovine serum, at a concentration of about 1×10^6 cells/ml. Cells are allocated to polyvinyl culture tubes at 1 ml/tube. A polyamine analog such as SL-11047 is added to 3 tubes, to achieve final concentrations of 1.0, 0.1, and 0.01 micromolar. A fourth tube, for control, receives no (zero) drug. […]
On the […] of incubation, cells are removed from the incubator, washed with PBS and resuspended in PBS at 0.1 ml/tube. Detection of monocytes is detected by addition of fluorescein-conjugated anti-CD14 (DAKO Corp., Carpenteria, Calif.), for 20 minutes, at room temperature, protected from light. […]
An experiment as described above was performed with CD14+ circulating monocytes from 6 ALS patients, 1 multiple sclerosis (MS) patient and 1 normal (non-ALS) control subject. In this experiment, the cells from a patient were incubated with or without polyamine analog SL-11047 for 6 days and survival of CD14+ cells was determined. […]

SMILES: CCNCCCNC/C=C\CNCCCNCC.Cl.Cl.Cl.Cl [SL-11047, N,N′-bis(3-ethylaminopropyl)-cis-but-2-ene-1,4-diamine tetrahydrochloride]
- susceptibility to killing (percentage of CD14+ cells killed): substantially more susceptible to killing
